Assay results taken from PubChem BioAssay (NCI).
Several values for one entry are separate records, joined by “and”; a condition that tells them apart may be missing. Equal values may be shown once.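 These data come from cells grown in 96-well plates and exposed to compound for 48 hours at five concentrations. At the GI50, growth is halved. The concentration for full growth arrest is given as TGI.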

Experiments:
Assay in all cases: NCI-60 cell line screen, 48 h
[1] = tested on: DU-145 prostate
[2] = tested on: OVCAR-8 ovarian
[3] = tested on: SK-MEL-2 melanoma
[4] = tested on: MDA-MB-435
[5] = tested on: K-562 leukemia
[6] = tested on: HOP-62 NSCLC
[7] = tested on: UACC-257 melanoma
[8] = tested on: HT29 colon
[9] = tested on: OVCAR-3 ovarian
[10] = tested on: M14 melanoma

With `COc1cc(-n2cc(-c3ccc(Cl)cc3)n(-c3ccccc3)c2=O)cc(OC)c1OC` the GI50 [1] was 43.6 µM, the TGI [1] was > 100 µM and the GI50 [2] was 27.7 µM. For the same compound, the TGI [2] was > 100 µM, the GI50 [3] was 17.4 µM and the TGI [3] was 40 µM. For the same compound, the GI50 [4] was 18.7 µM, the TGI [4] was > 86.3 µM and the GI50 [5] was 13.6 µM. For the same compound, the TGI [5] was > 100 µM, the GI50 [6] was 44.3 µM and the TGI [6] was > 100 µM. The GI50 [7] was 15.5 µM, the TGI [7] was 71.9 µM and the GI50 [8] was 16.6 µM. For the same compound, the TGI [8] was > 100 µM, the GI50 [9] was 16.3 µM and the TGI [9] was > 86.2 µM. The GI50 [10] was 23.8 µM and the TGI [10] was 98.9 µM.

In the case of `c1cc(OCCN2CCCC2)ccc1CNc1ccc2nc(CCC3CCCCC3)[nH]c2c1`, the GI50 [1] is reported as 3.43 µM, the TGI [1] is reported as 12.4 µM and the GI50 [2] is reported as 2.69 µM. The TGI [2] was 10 µM, the GI50 [3] was 1.84 µM and the TGI [3] was 3.55 µM. The GI50 [4] was 1.62 µM, the TGI [4] was 3.08 µM and the GI50 [5] was 0.414 µM. It also gave a TGI [5] of 2.11 µM, a GI50 [6] of 1.71 µM and a TGI [6] of 3.62 µM. It also gave a GI50 [7] of 1.83 µM, a TGI [7] of 4.04 µM and a GI50 [8] of 0.535 µM. The TGI [8] was 2.23 µM, the GI50 [9] was 1.67 µM and the TGI [9] was 3.52 µM. The GI50 [10] was 1.6 µM and the TGI [10] was 3.23 µM.

For `CCOC(=O)Cc1csc(NC(=O)C(OC(=O)c2ccc(Cl)cc2)c2ccccc2)n1` (configuration not stated), the GI50 [1] was 72.7 µM, the TGI [1] was > 100 µM and the GI50 [2] was 64.8 µM. The TGI [2] was > 100 µM, the GI50 [3] was 23.8 µM and the TGI [3] was 50.7 µM. The GI50 [4] was 28.1 µM, the TGI [4] was 75.6 µM and the GI50 [5] was 27.1 µM. For the same compound, the TGI [5] was > 100 µM, the GI50 [6] was 44.1 µM and the TGI [6] was > 100 µM. The GI50 [7] was 41.3 µM, the TGI [7] was > 100 µM and the GI50 [8] was 27 µM. The TGI [8] was 88 µM, the GI50 [9] was 17.8 µM and the TGI [9] was 41.9 µM. It also gave a GI50 [10] of 22.1 µM and a TGI [10] of 52 µM.

`CCCCCN(CCCCC)CCC[C@@H](C)[C@H]1CC[C@H]2[C@@H]3[C@H](OCCCN)C[C@@H]4C[C@H](OCCCN)CC[C@]4(C)[C@H]3C[C@H](OCCCN)[C@]12C` showed a GI50 [1] of 11.1 µM, a TGI [1] of 23.6 µM and a GI50 [2] of 7.39 µM. It also gave a TGI [2] of 22.9 µM, a GI50 [3] of 15.1 µM and a TGI [3] of 31.3 µM. The GI50 [4] was 1.98 µM, the TGI [4] was 4.93 µM and the GI50 [5] was 1.84 µM. The TGI [5] was 4.33 µM, the GI50 [6] was 5.23 µM and the TGI [6] was 23.5 µM. The GI50 [7] was 13.5 µM, the TGI [7] was 28.6 µM and the GI50 [8] was 2.65 µM. For the same compound, the TGI [8] was 15.3 µM, the GI50 [9] was 17 µM and the TGI [9] was 36.1 µM. For the same compound, the GI50 [10] was 6.03 µM and the TGI [10] was 22.5 µM.

With `Cc1ccc(/C(=N/NS(=O)(=O)c2cc(C)c(Cl)cc2Cl)Sc2cc(Cl)c(C)cc2S(N)(=O)=O)cc1` the GI50 [1] was 49.7 µM, the TGI [1] was > 100 µM and the GI50 [2] was > 100 µM. For the same compound, the TGI [2] was > 100 µM, the GI50 [3] was > 100 µM and the TGI [3] was > 100 µM. For the same compound, the GI50 [4] was > 100 µM, the TGI [4] was > 100 µM and the GI50 [5] was 70.1 µM. The TGI [5] was > 100 µM, the GI50 [6] was > 100 µM and the TGI [6] was > 100 µM. The GI50 [7] was > 100 µM, the TGI [7] was > 100 µM and the GI50 [8] was > 100 µM. The TGI [8] was > 100 µM, the GI50 [9] was 59 µM and the TGI [9] was > 100 µM. For the same compound, the GI50 [10] was > 100 µM and the TGI [10] was > 100 µM.

In the case of `CC[C@]12CN3CCc4c([nH]c5ccccc45)[C@@](C(=O)OC)(c4cc5c(cc4OC)N(C)[C@H]4[C@@](O)(C(=O)OC)[C@H](OC(C)=O)[C@]6(CC)C=CCN7CC[C@]54[C@@H]76)CC(C3)[C@H]1O2` (some centres not stated), the GI50 [1] is reported as 0.121 µM, the GI50 [2] is reported as 0.273 µM and the TGI [2] is reported as > 100 µM. For the same compound, the GI50 [3] was 0.0434 µM, the GI50 [4] was 0.0161 µM and the TGI [4] was 0.0252 µM and 0.0878 µM. The GI50 [5] was 0.0499 µM, the TGI [5] was > 50 µM and the GI50 [6] was 0.121 µM. The TGI [6] was 26.9 µM, the GI50 [7] was 0.161 µM and the TGI [7] was > 100 µM. For the same compound, the GI50 [8] was 0.131 µM, the TGI [8] was > 73.5 µM and the GI50 [9] was 0.0445 µM. The GI50 [10] was 0.239 µM and the TGI [10] was 25.1 µM.

`NC(=O)c1cn(C2CC(O)C(CO)O2)c2ncnc(N)c12` (configuration not stated) was tested, and the GI50 [1] was 1.41 µM, the TGI [1] was 10.4 µM and the GI50 [2] was 2.09 µM. For the same compound, the TGI [2] was 17.9 µM, the GI50 [3] was 10.5 µM and the TGI [3] was > 28.2 µM. For the same compound, the GI50 [4] was 2.42 µM, the TGI [4] was > 100 µM and the GI50 [5] was 4.21 µM. For the same compound, the TGI [5] was > 100 µM, the GI50 [6] was 5.36 µM and the TGI [6] was 49.7 µM. The GI50 [7] was 11 µM, the TGI [7] was > 63.4 µM and the GI50 [8] was 2.07 µM. The TGI [8] was > 54.8 µM, the GI50 [9] was 4.09 µM and the TGI [9] was 19.6 µM. It also gave a GI50 [10] of 3.12 µM and a TGI [10] of 22.6 µM.

For `CC1(C)C(=O)/C=C\C(=O)C(C)(C)C2=CC=C(O2)C(C)(C)C(=O)C(Br)C(Br)C(=O)C(C)(C)C2=CC=C1O2` (configuration not stated), the TGI [1] was > 100 µM, the TGI [2] was 40.1 µM and the TGI [3] was > 100 µM. The TGI [4] was > 100 µM, the TGI [5] was 45.4 µM and the TGI [6] was > 100 µM. The TGI [7] was > 100 µM, the TGI [8] was > 100 µM and the TGI [9] was 68.9 µM. For the same compound, the TGI [10] was > 87 µM.

In the case of `O=C(Nc1ccc(Cl)c(C(F)(F)F)c1)Nc1ccc(-c2cccnc2)cc1N1CCC(CO)CC1`, the GI50 [1] is reported as 3.74 µM, the TGI [1] is reported as > 100 µM and the GI50 [2] is reported as 3.75 µM. It also gave a TGI [2] of 35.4 µM, a GI50 [3] of 1.86 µM and a TGI [3] of 4.34 µM. The GI50 [4] was 1.91 µM, the TGI [4] was 4.53 µM and the GI50 [5] was 3.3 µM. For the same compound, the TGI [5] was > 100 µM, the GI50 [6] was 2.02 µM and the TGI [6] was 5.09 µM. The GI50 [7] was 3.47 µM, the TGI [7] was 9.82 µM and the GI50 [8] was 1.92 µM. It also gave a TGI [8] of 4.02 µM, a GI50 [9] of 1.84 µM and a TGI [9] of 4.3 µM. For the same compound, the GI50 [10] was 1.93 µM and the TGI [10] was 4.85 µM.

`Cc1nnn(C)c1-c1cnc2c3ccc(C(C)(C)O)cc3n([C@H](c3ccccc3)C3CCOCC3)c2c1` was tested, and the GI50 [1] was 11.2 µM, the TGI [1] was > 100 µM and the GI50 [2] was 0.0652 µM. It also gave a TGI [2] of 31.6 µM, a GI50 [3] of 0.765 µM and a TGI [3] of 30.7 µM. The GI50 [4] was < 0.01 µM, the TGI [4] was > 100 µM and the GI50 [5] was < 0.01 µM. For the same compound, the TGI [5] was > 100 µM, the GI50 [6] was < 0.0227 µM and the TGI [6] was > 46.9 µM. The GI50 [7] was < 0.0132 µM, the TGI [7] was 31.3 µM and the GI50 [8] was < 0.01 µM. The TGI [8] was > 42 µM, the GI50 [9] was 0.0271 µM and the TGI [9] was 14.8 µM. For the same compound, the GI50 [10] was < 0.01 µM and the TGI [10] was 30.9 µM.

In the case of `COc1cccc2c1C(=O)c1c(O)c3c(c(O)c1C2=O)C[C@](O)(C(=O)CO)C[C@H]3O[C@@H]1C[C@@H](NC(=O)CCCN(C)C2(c3ccc(F)cc3)CC3CCC2C3)[C@H](O)[C@@H](C)O1` (some centres not stated), the GI50 [1] is reported as 0.893 µM, the TGI [1] is reported as 1.89 µM and the GI50 [2] is reported as 0.913 µM. The TGI [2] was 2.36 µM, the GI50 [3] was 1.06 µM and the TGI [3] was 2.15 µM. It also gave a GI50 [4] of 0.836 µM, a TGI [4] of 1.61 µM and a GI50 [5] of 1.02 µM. It also gave a TGI [5] of 2.58 µM, a GI50 [6] of 2.26 µM and a TGI [6] of 10.6 µM. For the same compound, the GI50 [7] was 0.984 µM, the TGI [7] was 1.73 µM and the GI50 [8] was 0.881 µM. It also gave a TGI [8] of 1.92 µM, a GI50 [9] of 0.852 µM and a TGI [9] of 1.71 µM. The GI50 [10] was 0.925 µM and the TGI [10] was 1.73 µM.

With `O=Cc1ccc(-c2ccc(-c3nc4ccccc4s3)cc2)o1` the GI50 [1] was 35 µM, the TGI [1] was > 100 µM and the GI50 [2] was 70.7 µM. The TGI [2] was > 100 µM, the GI50 [3] was > 100 µM and the TGI [3] was > 100 µM. For the same compound, the GI50 [4] was > 100 µM, the TGI [4] was > 100 µM and the GI50 [5] was > 100 µM. The TGI [5] was > 100 µM, the GI50 [6] was > 100 µM and the TGI [6] was > 100 µM. The GI50 [7] was > 100 µM, the TGI [7] was > 100 µM and the GI50 [8] was > 100 µM. For the same compound, the TGI [8] was > 100 µM, the GI50 [9] was 16 µM and the TGI [9] was 74.1 µM. For the same compound, the GI50 [10] was > 100 µM and the TGI [10] was > 100 µM.
